Data reported in patent US20100286400A1, “CRYSTALLINE SOLVATED FORMS OF (R)-2-[[[3-METHYL-4-(2,2,2-TRIFLUOROETHOXY)-2-PYRIDINYL]METHYL]SULFINYL]-1H-BENZIMIDAZOLE” (TAKEDA PHARMACEUTICAL COMPANY LIMITED, priority 2007, published 2010).
Each block holds one molecule with its values, some of them ahead of it.

Tests used:
Format in all cases: physicochemical
[1] = Solubility of crystal forms as a suspension of powder in water (HPLC and XRPD)
Protocol: The solubilities of Forms I, II, III, IV and VI of (R)-lansoprazole obtained in the above-mentioned Reference Example 1 and Examples were tested as a suspension of power in water at 25° C. for 5 days. The solid samples of each form were tested as-is by HPLC and XRPD without particle size determination. […] The extent of chemical degradation as a function of time was similar for all forms.

[2] = Relationships among Forms of R(+)-lansoprazole under various conditions
Source text: The relationships among Forms of R(+)-lansoprazole were studied under various conditions.

[3] = Interconversion slurries of mixtures of forms in aqueous saturated solutions (XRPD); conditions: slurry in water, ambient, additional time beyond 5 days
Protocol: Mixtures of Forms I, II, III, IV and VI were slurried in aqueous saturated solutions at ambient temperature and up to 40° C. A mixture of Form II and Pattern V material was obtained when the mixture of forms was slurried at ambient temperature for 5 days, despite the absence of Pattern V material as starting material.

SMILES: Cc1c(OCC(F)(F)F)ccnc1C[S@@+]([O-])c1nc2ccccc2[nH]1 [Form I, (R)-2-[[[3-methyl-4-(2,2,2-trifluoroethoxy)-2-pyridinyl]methyl]sulfinyl]-1H-benzimidazole]
XRPD of residual solids after the solubility study ([1]; after 5 days as a suspension in water at 25° C.): a mixture consisting of Form I (major component) and Form II

chemical degradation over time ([1]; suspension in water at 25° C. for 5 days): chemically degraded over time
SMILES: Cc1c(OCC(F)(F)F)ccnc1C[S@@+]([O-])c1nc2ccccc2[nH]1 [Form II, (R)-2-[[[3-methyl-4-(2,2,2-trifluoroethoxy)-2-pyridinyl]methyl]sulfinyl]-1H-benzimidazole]
order of stability in transfer (crystal form conversion) ([2]; according to Experimental Example 2 and 3, most stable first): Form II, Form VI, Form III, Form IV, and Form V, in that order
appearance on heating ([2]; vial purged with nitrogen, heated to 93° C. in an oil bath): Sample had turned brown in up to 45 seconds, removed

form obtained on additional slurry time [3]: converted to Form II
SMILES: Cc1c(OCC(F)(F)F)ccnc1C[S@@+]([O-])c1nc2ccccc2[nH]1 [Pattern V, (R)-2-[[[3-methyl-4-(2,2,2-trifluoroethoxy)-2-pyridinyl]methyl]sulfinyl]-1H-benzimidazole]
